Experimental data from patent US8318731B2, “Pyrrolopyrimidines” (Janssen Pharmaceutica NV, priority 2007, dated 2012).

Experiments:
[1] = target: T1, PLK4 (h) (Homo sapiens, UniProt O00444); assay: PLK-4 human kinase scintillation proximity assay (SPA); format: biochemical; details: 1 μM ATP, 60 minutes at r.t., read-out: PLK4 pIC50 (converted)
T1 sequence (O00444 1-970): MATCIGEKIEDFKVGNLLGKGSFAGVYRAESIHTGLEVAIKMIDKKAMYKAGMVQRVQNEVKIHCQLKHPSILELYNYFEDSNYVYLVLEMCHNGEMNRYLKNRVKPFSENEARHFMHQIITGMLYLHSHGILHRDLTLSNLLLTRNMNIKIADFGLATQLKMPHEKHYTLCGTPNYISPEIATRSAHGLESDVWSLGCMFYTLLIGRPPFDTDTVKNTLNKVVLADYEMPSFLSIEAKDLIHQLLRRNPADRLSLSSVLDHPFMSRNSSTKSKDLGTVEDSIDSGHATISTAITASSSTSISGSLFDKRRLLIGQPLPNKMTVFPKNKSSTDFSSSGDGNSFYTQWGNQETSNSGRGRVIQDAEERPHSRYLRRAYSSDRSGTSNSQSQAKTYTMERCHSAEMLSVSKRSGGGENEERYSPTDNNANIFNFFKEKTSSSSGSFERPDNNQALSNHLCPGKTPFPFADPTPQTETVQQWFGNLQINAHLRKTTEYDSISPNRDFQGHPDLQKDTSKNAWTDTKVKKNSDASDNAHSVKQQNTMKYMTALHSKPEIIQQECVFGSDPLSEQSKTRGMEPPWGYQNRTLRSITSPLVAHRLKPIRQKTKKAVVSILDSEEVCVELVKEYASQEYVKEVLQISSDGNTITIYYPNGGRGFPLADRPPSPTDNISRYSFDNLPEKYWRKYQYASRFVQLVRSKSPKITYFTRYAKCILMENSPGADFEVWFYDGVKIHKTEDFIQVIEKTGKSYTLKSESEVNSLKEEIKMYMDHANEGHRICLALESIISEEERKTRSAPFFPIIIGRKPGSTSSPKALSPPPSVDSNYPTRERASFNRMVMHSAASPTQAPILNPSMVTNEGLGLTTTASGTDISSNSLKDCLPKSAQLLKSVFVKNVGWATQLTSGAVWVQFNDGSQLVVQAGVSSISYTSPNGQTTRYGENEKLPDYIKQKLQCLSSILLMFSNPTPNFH
How it was run: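 Human PLK4 (19 μg/ml) reacted with 10 μM biotinylated peptide, 1 μM ATP plus 2 nM [γ-33P]ATP in HEPES pH 8.0 with MgCl2, NaCl, NaF and DTT for 60 min at r.t. After an EDTA stop, phosphorylated substrate was captured on streptavidin PVT SPA beads and scintillation imaged.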

[2] = test system: HCT-116; assay: Cellular proliferation assay (Alamar blue), HCT-116; format: cell-based; details: Homo sapiens; HCT-116 cells; 10% FCS; 72 h with compound; Alamar blue 4 h; read-out: pIC50 HCT-116 (converted)
How it was run: (§1)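 Cells in 10% FCS (37° C., 5% CO2) were seeded 24 hours before a 72-hour compound exposure. Viable cells were measured by Alamar blue fluorescence (544 nm/590 nm) after dye incubation of 4 h (HCT-116), 6 h (U87-MG) or 24 h (PC3, A2780). Effect is relative to control cells.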

[3] = test system: H1299; assay: Cellular proliferation assay (Alamar blue), H1299; format: cell-based; details: Homo sapiens, NCI-H1299, H1299 cells; 10% FCS; 72 h with compound; Alamar blue 4 h; read-out: pIC50 H1299 (converted)
How it was run: (§2)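 Viable cell number is determined by Alamar blue conversion after cells are treated with compound for 72 hours, following 24 hours of growth without compound in 10% FCS. The effect is calculated against control cells.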

[4] = test system: U87-MG; assay: Cellular proliferation assay (Alamar blue), U87-MG; format: cell-based; details: Homo sapiens, U-87 MG; U87-MG cells; 10% FCS; 72 h with compound; Alamar blue 6 h; read-out: pIC50 U87MG (converted)
Procedure: Cellular proliferation of these compounds was tested on a panel of different cell lines in the presence of 10% FCS serum (37° C. and 5% (v/v) CO2). In a first step these cells were seeded and incubated for 24 hours in the absence of compound. In the second step the cells were incubated for 72 hours with the compounds to be tested for 72 hours. The viable cell number was finally assessed in a standard Alamar blue cell viability assay.
The viable cell number was assessed by incubation for either 4 h (HCT-116, H1299) 6 h (U87-MG) or 24 h (A2780, PC3, MDA-MB-231) with Alamar blue (Resazurin 9 μg/ml, K-Ferrocyanide 90 μM, K-Ferricyanide 90 μM) and the converted fluorescent product was quantified on a fluorescent plate readed (544 nm/590 nm). Effect of the compounds is calculated as of on control cells.

[5] = test system: A2780; assay: Cellular proliferation assay (Alamar blue), A2780; format: cell-based; details: Homo sapiens, A2780, A2780 cells; 10% FCS; 72 h with compound; Alamar blue 24 h; read-out: pIC50 A2780 (converted)
How it was run: as §1

[6] = test system: PC3; assay: Cellular proliferation assay (Alamar blue), PC3; format: cell-based; details: Homo sapiens, PC-3, PC-3 cells; 10% FCS; 72 h with compound; Alamar blue 24 h; read-out: pIC50 PC-3 (converted)
How it was run: as §1

[7] = test system: MDA-MB-231; assay: Cellular proliferation assay (Alamar blue), MDA-MB-231; format: cell-based; details: Homo sapiens, MDA-MB-231, MDA-MB-231 cells; 10% FCS; 72 h with compound; Alamar blue 24 h; read-out: pIC50 MDA/MB231 (converted)
How it was run: as §2

| IC50 [1] | IC50 [2] | IC50 [3] | IC50 [4] | IC50 [5] | IC50 [6] | IC50 [7] | SMILES |
| --- | --- | --- | --- | --- | --- | --- | --- |
| 1 µM | > 10 µM | > 10 µM | > 10 µM | > 10 µM | > 10 µM | > 10 µM | COc1ccc2cc1OCCCC(=O)N1CCN(CC1)Cc1c[nH]c3ncnc(c13)N2 [Compound 105] |
| 0.0794 µM | > 10 µM | > 10 µM | > 10 µM | > 10 µM | > 10 µM | > 10 µM | COc1ccc2cc1OCC(=O)N(C)CCCNCc1c[nH]c3ncnc(c13)N2 [Compound 65] |
| 0.631 µM | > 10 µM | > 10 µM | > 10 µM | > 10 µM | > 10 µM | > 10 µM | COc1ccc2cc1OCCCCC(=O)N1CCN(CC1)Cc1c[nH]c3ncnc(c13)N2 [Compound 103] |
| 6.31 µM | > 10 µM | > 10 µM | > 10 µM | > 10 µM | > 10 µM | > 10 µM | O=C1CCCOc2cc(ccc2Cl)Nc2ncnc3[nH]cc(c23)CN2CCN1CC2 [Compound 106] |
| 0.794 µM | 6.31 µM | > 10 µM | > 10 µM | 3.98 µM | > 10 µM | > 10 µM | CN1CCN(C)C(=O)CCCOc2cccc(c2)Nc2ncnc3[nH]cc(c23)C1 [Compound 31] |
| 0.0251 µM | 0.794 µM | > 10 µM | 2 µM | 0.794 µM | > 10 µM | > 10 µM | COc1ccc(NC(=O)Nc2ccc3cc2OCC(=O)N(C)CCCN(C)Cc2c[nH]c4ncnc(c24)N3)cc1 [Compound 15] |
| 2.51 µM | > 10 µM | > 10 µM | > 10 µM | > 10 µM | > 10 µM | > 10 µM | COc1ccc2cc1OCCCCC(=O)N(C)CCN(C)Cc1c[nH]c3ncnc(c13)N2 [Compound 41] |
| 3.98 µM | > 10 µM | > 10 µM | > 10 µM | > 10 µM | > 10 µM | > 10 µM | COc1cc2cc(c1OC)OCC(=O)N(C)CCCN(C)Cc1c[nH]c3ncnc(c13)N2 [Compound 57] |
| 0.0251 µM | 0.316 µM | 1 µM | 1.58 µM | 0.316 µM | 2.51 µM | 2 µM | COCCOc1ccc2cc1OCC(=O)N(C)CCCN(C)Cc1c[nH]c3ncnc(c13)N2 [Compound 119] |
| 0.0794 µM | 0.631 µM | 2 µM | 2 µM | 0.501 µM | 2.51 µM | 3.16 µM | CCOc1ccc2cc1OCC(=O)N(C)CCCN(C)Cc1c[nH]c3ncnc(c13)N2 [Compound 63] |
| > 10 µM | > 10 µM | > 10 µM | > 10 µM | > 10 µM | > 10 µM | > 10 µM | COc1ccc2cc1CN(C)CCC(=O)N(C)CCCc1c[nH]c3ncnc(c13)N2 [Compound 4] |
| 3.16 µM | > 10 µM | > 10 µM | > 10 µM | > 10 µM | > 10 µM | > 10 µM | CN1CCN(C)C(=O)CCc2cc(ccc2N2CCOCC2)Nc2ncnc3[nH]cc(c23)C1 [Compound 45] |
| 0.0794 µM | 0.631 µM | 2 µM | 3.16 µM | 0.398 µM | 10 µM | > 10 µM | CN1CCCN(C)C(=O)COc2cc(ccc2OCCCNc2ccc(Cl)cc2)Nc2ncnc3[nH]cc(c23)C1 [Compound 142] |
| > 10 µM | > 10 µM | > 10 µM | > 10 µM | > 10 µM | > 10 µM | > 10 µM | COCCN1CC(=O)N(C)CCCc2c[nH]c3ncnc(c23)Nc2ccc(OC)c(c2)C1 [Compound 36] |
| 0.316 µM | > 10 µM | > 10 µM | > 10 µM | > 10 µM | > 10 µM | > 10 µM | CN1CCCN(C)C(=O)CCCCCOc2cc(ccc2Cl)Nc2ncnc3[nH]cc(c23)C1 [Compound 19] |
| > 10 µM | > 10 µM | > 10 µM | > 10 µM | > 10 µM | > 10 µM | > 10 µM | O=C1CCCCOc2cc(cc(C(F)(F)F)c2)Nc2ncnc3[nH]cc(c23)CN2CCN1CC2 [Compound 113] |
| 0.631 µM | > 10 µM | > 10 µM | > 10 µM | > 10 µM | > 10 µM | > 10 µM | CN1CCCN(C)C(=O)COc2cc(ccc2Cl)Nc2ncnc3c2c(cn3C)C1 [Compound 146] |
| 0.0398 µM | 0.631 µM | 1.58 µM | 2 µM | 0.501 µM | 5.01 µM | 3.16 µM | CCOCCCOc1ccc2cc1OCC(=O)N(C)CCCN(C)Cc1c[nH]c3ncnc(c13)N2 [Compound 130] |
| > 10 µM | > 10 µM | > 10 µM | > 10 µM | > 10 µM | > 10 µM | > 10 µM | COc1ccc2cc1CN(C(C)C)CC(=O)N(C)CCCc1c[nH]c3ncnc(c13)N2 [Compound 37] |
| 6.31 µM | > 10 µM | > 10 µM | > 10 µM | > 10 µM | > 10 µM | > 10 µM | O=C1CCCOc2cccc(c2)Nc2ncnc3[nH]cc(c23)CN2CCN1CC2 [Compound 107] |
| 0.0631 µM | 0.501 µM | 0.794 µM | 1 µM | 0.631 µM | 1 µM | 1.58 µM | CN1CCCN(C)C(=O)COc2cc(ccc2Br)Nc2ncnc3[nH]cc(c23)C1 [Compound 139] |
| > 10 µM | > 10 µM | > 10 µM | > 10 µM | > 10 µM | > 10 µM | > 10 µM | COc1cc2cc(c1OC)CCC(=O)N(C)CCCN(C)Cc1c[nH]c3ncnc(c13)N2 [Compound 30] |

| SMILES | IC50 [1] | IC50 [2] | IC50 [3] | IC50 [4] | IC50 [5] | IC50 [6] | IC50 [7] |
| --- | --- | --- | --- | --- | --- | --- | --- |
| CN1CCN(C)C(=O)COc2cccc(c2)Nc2ncnc3[nH]cc(c23)C1 [Compound 58] | 0.0501 µM | 2.51 µM | 5.01 µM | 6.31 µM | 3.16 µM | 7.94 µM | 10 µM |
| COc1ccc2cc1OCC(=O)N1CCC[C@@H]1CN(C)CCCc1c[nH]c3ncnc(c13)N2 [Compound 38] | > 10 µM | > 10 µM | > 10 µM | > 10 µM | > 10 µM | > 10 µM | > 10 µM |
